The values that follow come from paper PMC3909100, “Biochemical, Stabilization and Crystallization Studies on a Molecular Chaperone (PaoD) Involved in the Maturation of Molybdoenzymes” (PLoS ONE, 2014).

Values joined by “and” are separate entries in the source; they are usually repeats but may differ in a detail not shown here. Identical values can stand only once.

The target in series [1] is T1, PaoD (Escherichia coli, UniProt P77183).
T1 construct: full length, expressed from plasmid pMN87 in E. coli BL21(DE3), Ni-TED purified (tag not described); dimer in solution
T1 sequence (P77183 1-318): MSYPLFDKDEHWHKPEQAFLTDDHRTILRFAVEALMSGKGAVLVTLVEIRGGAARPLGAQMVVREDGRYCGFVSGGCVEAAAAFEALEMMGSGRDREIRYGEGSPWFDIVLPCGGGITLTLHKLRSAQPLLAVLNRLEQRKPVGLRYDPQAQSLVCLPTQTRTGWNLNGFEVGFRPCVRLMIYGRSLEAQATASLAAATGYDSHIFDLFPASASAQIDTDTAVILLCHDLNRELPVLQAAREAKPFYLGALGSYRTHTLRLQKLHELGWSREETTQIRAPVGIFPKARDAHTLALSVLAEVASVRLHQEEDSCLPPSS
The series can be described thus: ultrafiltration, bound cofactor oxidized to Form A, HPLC fluorescence. Type of series: binding. As to conditions: 12 µM PaoD, 0-48 µM cofactor, 100 mM Tris-HCl, 300 mM NaCl, pH 7.2, 277 K.

For series [2], the target named is T1, PaoD. The series can be described thus: STD-NMR. Type of series: binding. As to conditions: ca 30 µM PaoD, 3 mM ionic liquid, 50 mM Tris-HCl, 1 mM EDTA, 300 mM NaCl, pH 8.0, 310 K; signals from cation ring protons; weak surface interaction.
Series [3] concerns the molecule itself. As to the kind of experiment: SEC; freshly purified PaoD on Superdex 75 HR10/30, 50 mM Tris-HCl, 300 mM NaCl, pH 8.0, 283 K, 0.5 mL/min; column calibrated with Bio-Rad standards. (In general: Size exclusion chromatography separates by hydrodynamic size, large species first.)

On to `Nc1nc2c(c(=O)[nH]1)N[C@H]1C(S)=C(S)[C@@H](COP(=O)(O)O)O[C@H]1N2` [MPT], for which, at PaoD [1], the “ultrafiltration, bound cofactor oxidized to Form A, HPLC fluorescence” value was “The obtained chromatograms showed that Mo-MPT and MPT was bound to PaoD”. In the case of `C[n+]1ccn(CCO)c1` [[C2OHmim]PF6], the STD-NMR entry at PaoD [2] is “aromatic protons of the cation were detected both for [C2OHmim]PF6 and [C4mim]Cl”. Consider `CCCC[n+]1ccn(C)c1` [[C4mim]Cl], for which the STD-NMR result at PaoD [2] was “aromatic protons of the cation were detected both for [C2OHmim]PF6 and [C4mim]Cl”.

B1: PaoD (natural protein, Escherichia coli, UniProt P77183 1-318, looked up)
chain: T1 sequence (P77183 1-318)
notes: PaoD, XdhC-like molecular chaperone of the periplasmic aldehyde oxidoreductase PaoABC, last gene of the paoABCD operon of Escherichia coli; calculated mass 34.8 kDa; the tag is inferred from the Ni-TED column and imidazole elution; also called molecular chaperone PaoD; E. coli PaoD; source: E. coli BL21(DE3), plasmid pMN87, purified (Ni-TED chromatography)
What is called stoichiometry N is the number of molecules, sites or subunits per partner or assembly. Regarding B1, the “stoichiometry N” value in series [3] is 2 and 4.
